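Cultured in 96-well plates, cells were exposed to test compound for 48 hours across five concentrations. GI50: concentration for 50% inhibition of growth.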 Active and inactive are the calls of the source. No stated cut-off is given here; in the data, active = GI50 up to about 1.1 µM and inactive = higher.
Key:
Assay in all cases: NCI anticancer screen, dose series, 48 h
NCI-H226 = tested on: NCI-H226
OVCAR-8 = tested on: OVCAR-8
LXFL 529 = tested on: LXFL 529
RXF 631 = tested on: RXF 631
SN12C = tested on: SN12C
UO-31 = tested on: UO-31
HT-29 = tested on: HT-29
786-0 = tested on: 786-0
NCI-H522 = tested on: NCI-H522
SK-MEL-2 = tested on: SK-MEL-2
DU-145 = tested on: DU-145
KM-20L2 = tested on: KM-20L2
IGROV-1 = tested on: IGROV-1
HCT-116 = tested on: HCT-116
Malme-3M = tested on: Malme-3M
K562 = tested on: K562
SNB-78 = tested on: SNB-78
TK-10 = tested on: TK-10
A549 = tested on: A549
XF498 = tested on: XF498
PC-3 = tested on: PC-3
HOP-62 = tested on: HOP-62
HOP-92 = tested on: HOP-92
T47D = tested on: T47D
SNB-19 = tested on: SNB-19
LOX IMVI = tested on: LOX IMVI
SF-539 = tested on: SF-539
SF-268 = tested on: SF-268
SNB-75 = tested on: SNB-75
EKVX = tested on: EKVX
CCRF-CEM = tested on: CCRF-CEM
NCI/ADR-RES = tested on: NCI/ADR-RES
RPMI-8226 = tested on: RPMI-8226
SF-295 = tested on: SF-295
NCI-H460 = tested on: NCI-H460
SW-620 = tested on: SW-620
HOP-18 = tested on: HOP-18
M19-MEL = tested on: M19-MEL
MDA-MB-231 = tested on: MDA-MB-231
COLO 205 = tested on: COLO 205
OVCAR-3 = tested on: OVCAR-3
Hs-578T = tested on: Hs-578T
MCF7 = tested on: MCF7
OVCAR-5 = tested on: OVCAR-5
U-251 = tested on: U-251
OVCAR-4 = tested on: OVCAR-4
M14 = tested on: M14
HL-60 = tested on: HL-60
SK-MEL-5 = tested on: SK-MEL-5
HCT-15 = tested on: HCT-15
BT-549 = tested on: BT-549
A498 = tested on: A498
DLD-1 = tested on: DLD-1
SK-OV-3 = tested on: SK-OV-3
DMS-273 = tested on: DMS-273
MOLT-4 = tested on: MOLT-4
CAKI-1 = tested on: CAKI-1
RXF 393 = tested on: RXF 393
HCC 2998 = tested on: HCC 2998
UACC-257 = tested on: UACC-257
UACC-62 = tested on: UACC-62
DMS-114 = tested on: DMS-114
MDA-MB-435 = tested on: MDA-MB-435
ACHN = tested on: ACHN
SK-MEL-28 = tested on: SK-MEL-28
SR = tested on: SR
NCI-H23 = tested on: NCI-H23

CC[C@@]1(O)C(=O)OCc2c1cc1n(c2=O)Cc2cc3cc4c(cc3nc2-1)OCO4
GI50 (NCI-H226): 1.68 nM (active) | GI50 (OVCAR-8): 1.89 nM (active) | GI50 (LXFL 529): 10.7 nM (active) | GI50 (RXF 631): 14.3 nM (active) | GI50 (SN12C): < 1 nM (active) | GI50 (UO-31): 1.16 nM (active) | GI50 (HT-29): 4.72 nM (active) | GI50 (786-0): < 1 nM (active) | GI50 (NCI-H522): 1.33 nM (active) | GI50 (SK-MEL-2): 22.4 nM (active) | GI50 (DU-145): < 1 nM (active) | GI50 (KM-20L2): 12.1 nM (active) | GI50 (IGROV-1): 9.48 nM (active) | GI50 (HCT-116): 1.67 nM (active) | GI50 (Malme-3M): 4.97 nM (active) | GI50 (K562): 3.04 nM (active) | GI50 (SNB-78): 376 nM (active) | GI50 (TK-10): 502 nM (active) | GI50 (A549): 1.44 nM (active) | GI50 (XF498): 23.8 nM (active) | GI50 (PC-3): 7.46 nM (active) | GI50 (HOP-62): < 1 nM (active) | GI50 (HOP-92): 2.6 nM (active) | GI50 (T47D): 10.4 nM (active) | GI50 (SNB-19): 1.52 nM (active) | GI50 (LOX IMVI): 1.35 nM (active) | GI50 (SF-539): < 1 nM (active) | GI50 (SF-268): < 1 nM (active) | GI50 (SNB-75): 1.48 nM (active) | GI50 (EKVX): 88.1 nM (active) | GI50 (CCRF-CEM): < 1 nM (active) | GI50 (NCI/ADR-RES): 1.75 nM (active) | GI50 (RPMI-8226): 28.1 nM (active) | GI50 (SF-295): < 1 nM (active) | GI50 (NCI-H460): < 1 nM (active) | GI50 (SW-620): 3.2 nM (active) | GI50 (HOP-18): 42.9 nM (active) | GI50 (M19-MEL): 7.87 nM (active) | GI50 (MDA-MB-231): 357 nM (active) | GI50 (COLO 205): 43.9 nM (active) | GI50 (OVCAR-3): 55.1 nM (active) | GI50 (Hs-578T): 244 nM (active) | GI50 (MCF7): 10 nM (active) | GI50 (OVCAR-5): 11.1 nM (active) | GI50 (U-251): < 1 nM (active) | GI50 (OVCAR-4): 50.7 nM (active) | GI50 (M14): < 1 nM (active) | GI50 (HL-60): 1.33 nM (active) | GI50 (SK-MEL-5): 1.69 nM (active) | GI50 (HCT-15): 18.1 nM | GI50 (BT-549): 11.8 nM (active) | GI50 (A498): < 14.3 nM (active) | GI50 (DLD-1): 55.9 nM (active) | GI50 (SK-OV-3): 2 nM (active) | GI50 (DMS-273): < 1 nM (active) | GI50 (MOLT-4): < 1 nM (active) | GI50 (CAKI-1): 1.73 nM (active) | GI50 (RXF 393): 2.21 nM (active) | GI50 (HCC 2998): 23.8 nM (active) | GI50 (UACC-257): 54 nM (active) | GI50 (UACC-62): < 1 nM (active) | GI50 (DMS-114): < 1 nM (active) | GI50 (MDA-MB-435): 14.9 nM (active) | GI50 (ACHN): < 1 nM (active) | GI50 (SK-MEL-28): 18.8 nM (active) | GI50 (SR): < 1 nM (active) | GI50 (NCI-H23): 1.14 nM (active)

— ChEMBL document CHEMBL1201862, “PubChem BioAssay data set” (2004)
